{
  "source": "patent US11872261B2",
  "about": "“Lipoprotein targeting protease inhibitors and uses” (The United States of America, as represented by the …, priority 2016, dated 2024)",
  "assay": "Clinical pilot study: plasma lipids before and after rosuvastatin",
  "type": "in vivo, human",
  "settings": "28 days vs baseline",
  "description": "This Example describes a small clinical pilot study which assessed the impact of statins on lipoprotein-associated proteins in healthy individuals (n=10) with normal LDL-C (<130 mg/dL), who were treated with the statin rosuvastatin (available commercially as Crestor®) (20 mg/day) for 28 days. Proteomic analysis of size-exclusion chromatography isolated LDL, HDL-L (large) and HDL-S (small) fractions and spectral counting was used to compare relative protein detection before and after statin therapy. Significant protein changes were found in each lipoprotein pool and included both increases and decreases in several proteins involved in lipoprotein metabolism, complement regulation, and acute phase response. Fasting blood samples were obtained from ten healthy volunteers participating in a study of the NIH Center for Human Immunology, intended to evaluate effects of a statin on the immune system. This protocol was approved by the institutional review board of the National Heart, Lung, and Blood Institute (NHLBI) and registered at clinicaltrials.gov (NCT01200836); all participants provided written informed consent. Three males and seven females were enrolled, with an average age of 44.1±11 years. Participants were selected to have normal LDL-C (<130 mg/dL) and were not on any lipid modification therapy prior to the study. Recruited participants were given rosuvastatin (20 mg/day) for 28 days. Blood was collected by venipuncture at the following time points: baseline, 14 and 28 days after rosuvastatin treatment, and 14 days after stopping treatment (washout). Samples were stored at -20° C. Because samples were taken from each participant at baseline and on-treatment, each subject acted as their own control. Lipid and lipoprotein assays were performed on a Siemens Dimension Vista analyzer, using standard enzymatic assays. HDL-C was measured by a direct assay (Siemens) and LDL-C was determined by the Friedewald equation. Lipoprotein particle numbers and average particle sizes were determined from heparinized plasma on a […] Clinical Analyzer (LipoScience).",
  "data": [
    {"compound": "CC(C)c1nc(N(C)S(C)(=O)=O)nc(-c2ccc(F)cc2)c1/C=C/[C@@H](O)C[C@@H](O)CC(=O)O", "note": "[rosuvastatin]", "values": [
      {"measurement": "increase of HDL-C", "setting": "20 mg/day, not statistically significant", "result": 3.6, "unit": "%"},
      {"measurement": "change in LDL-C", "setting": "20 mg/day, p<0.001", "result": "−50", "unit": "%"},
      {"measurement": "change in triglyceride", "setting": "20 mg/day, p<0.01", "result": "−29", "unit": "%"},
      {"measurement": "change in total cholesterol", "setting": "healthy subjects n=10, 20 mg/day, p<0.001", "result": "−28", "unit": "%"}
    ]}
  ]
}
